Tests used:
HeLa cells [1] = assay: Flow cytometric cell cycle distribution; assay type: cell-based; settings: 24 h
Description: To evaluate the effects of compounds 63, 66, and 75 on cell cycle progression, we first treated HeLa cells for 24 h.The cells were then labeled with propidium iodide (PI) and analyzed by flow cytometry. As shown in Figure 5 (panel B), compound 66 induced arrest of the cell cycle in the G2/M phase.
5 ×10^5 HeLa cells were treated with different concentrations of the test compounds for 24 h. After the incubation period, the cells were collected, centrifuged, and fixed with ice-cold ethanol (70%). The cells were treated with lysis buffer containing RNase A and 0.1% Triton X-100 and stained with PI. Samples were analyzed on a Cytomic FC500 flow cytometer (Beckman Coulter). DNA histograms were analyzed using MultiCycle for Windows (Phoenix Flow Systems).

A549/ATCC = assay: NCI-60 screen; assay type: cell-based; settings: Homo sapiens, Non-Small-Cell Lung Cancer
Procedure, shortened: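 Read-out is antitumor activity on each cell line of the NCI-60 panel after exposure to compound at 10^–5 M. The panel covers nine human cancer types.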

bovine brain tubulin = bovine brain tubulin (Bos taurus, UniProt P81947+Q6B856); assay: Inhibition of tubulin assembly (turbidimetry); assay type: biochemical; settings: 9 μM (0.9 mg/mL) tubulin, 20 min at 30 °C; read-out: inhibition of tubulin assembly IC50 ± SD
[2] = tested on: human peripheral blood lymphocytes not stimulated with PHA; assay: Cytotoxicity in resting PBLs (MTT); assay type: cell-based; settings: Lymphocyte, 72 h, mean ± SEM, three experiments, read-out: GI50 PBLresting
Description: (§1) PBLs were obtained from human peripheral blood (leucocyte rich plasma-buffy coats) from healthy volunteers using the Lymphoprep (Fresenius KABI Norge AS) gradient density centrifugation.
(§2) After extensive washing, cells were resuspended (1.0 × 10^6 cells/mL) in RPMI-1640 with 10% fetal bovine serum and incubated overnight. For cytotoxicity evaluations in proliferating PBL cultures, nonadherent cells were resuspended at 5 × 10^5 cells/mL in growth medium, containing 2.5 μg/mL PHA (Irvine Scientific). Different concentrations of the test compounds were added, and viability was determined 72 h later by the MTT test. For cytotoxicity evaluations in resting PBL cultures, nonadherent cells were resuspended (5 × 10^5 cells/mL) and treated for 72 h with the test compounds.

[3] = tested on: human peripheral blood lymphocytes stimulated with PHA; assay: Cytotoxicity in PHA-stimulated PBLs (MTT); assay type: cell-based; settings: Lymphocyte, 72 h, mean ± SEM, three experiments, read-out: GI50 PBLPHA
Description: as §1, §2

tubulin colchicine site = tubulin colchicine site (Bos taurus, UniProt P81947+Q6B856); assay: Inhibition of [3H]colchicine binding to tubulin; settings: read-out: inhibition of colchicine binding % inhibition ± SD
Description: Reaction mixtures in the assembly assay contained 9 μM (0.9 mg/mL) tubulin in the assembly assay, and in the colchicine assay they contained 0.5 μM tubulin, 5.0 μM [^3H]colchicine, and 5.0 μM inhibitor.
Analysis of effects on tubulin polymerization was performed by turbidimetry at 350 nm in recording spectrophotometers equipped with electronic temperature controllers as described in detail elsewhere.[71] […] The binding of [^3H]colchicine to tubulin was perfomed as described in detail previously[72] except that the tubulin concentration was reduced from 0.1 mg/mL to 0.05 mg/mL and only one, instead of two, DEAE-cellulose filter was used for each reaction mixture.

HeLa cells [4] = assay: Annexin-V/PI apoptosis assay; assay type: cell-based
Description: To analyze the mode of cell death induced by compound 66 in HeLa cells, we utilized a double labeling assay of the cells with annexin-V and PI. This procedure, through a flow cytometric analysis, distinguishes four different cell populations: live cells (annexin-V^–/PI^–), early apoptotic cells (annexin-V^+/PI^–), late apoptotic cells (annexin-V^+/PI^+), and necrotic cells (annexin-V^–/PI^+).
Cell death was determined by flow cytometry of cells double stained with annexin V/FITC and PI. The Coulter Cytomics FC500 (Beckman Coulter) was used to measure the surface exposure of phosphatidylserine on apoptotic cells according to the manufacturer’s instructions (Annexin-V Fluos, Roche Diagnostics).

HeLa cells [5] = assay: ROS production (H2-DCFDA); assay type: cell-based; settings: 48 h, 0.5 μM
Description: One consequence of mitochondrial depolarization caused by the release of cytochrome c into the cytoplasm is the increase in reactive oxygen species (ROS).[65] Therefore, we wanted to evaluate whether ROS production increased following treatment with compound 66. To do this, we used the fluorescent probe 2,7-dichlorodihydrofluorescein diacetate (H2-DCFDA), which is oxidized to the fluorescent compound dichlorofluorescein (DCF) upon ROS production.
The production of ROS was measured by flow cytometry using H2DCFDA (Molecular Probes), as previously described.[59] Briefly, after different times of treatment, cells were collected by centrifugation and resuspended in PBS containing H2DCFDA at the concentration of 0.1 μM. The cells were then incubated for 30 min at 37 °C, centrifuged, and resuspended in PBS. The fluorescence was directly recorded with the flow cytometer, using as excitation wavelength 488 nm and emission at 530 nm.

cdc25c = assay: Western blot, G2/M checkpoint proteins; assay type: cell-based; settings: HeLa, 0.5 μM
Description: (§3) Figure 6 Effects of 66 on G2/M checkpoint proteins. HeLa cells were treated with 0.1 or 0.5 μM compound 66 for 24 or 48 h. The cells were harvested and lysed for the detection of cdc25c, p-cdc2^Y15, and cyclin B expression by Western blot analysis. To confirm equal protein loading, each membrane was stripped and reprobed with anti-GAPDH antibody. The relative expression of proteins was analyzed by scanning densitometry using ImageJ software and reported as a ratio protein/GAPDH.
(§4) HeLa cells were incubated in the presence of the test compound and, after different times, were collected, centrifuged, and washed two times with ice cold PBS. The pellet was resuspended in lysis buffer. After the cells were lysed on ice for 30 min, lysates were centrifuged at 15 000g at 4 °C for 10 min. The protein concentration in the supernatant was determined using the BCA protein assay reagents (Pierce, Italy). Equal amounts of protein (10 μg) were resolved using sodium dodecyl sulfate–polyacrylamide gel electrophoresis (Criterion Precast, BioRad, Italy) and transferred to a PVDF Hybond-P membrane (GE Healthcare). Membranes were blocked with a bovine serum albumin solution (5% in Tween PBS 1×), and the membranes were gently rotated overnight at 4 °C in the albumin solution. Membranes were then incubated with primary antibodies against PARP cleaved fragment, cdc25c, cyclin B, p-cdc2^Tyr15, XIAP, and Mcl-1 (all from Cell Signaling) or GAPDH (Sigma-Aldrich) for 2 h at room temperature. Membranes were next incubated with peroxidase labeled secondary antibodies for 1 h. All membranes were visualized using ECL Select (GE Healthcare), and images were acquired using an Uvitec-Alliance imaging system (Uvitec, Cambridge, U.K.). To ensure equal protein loading, each membrane was stripped and reprobed with anti-GAPDH antibody. To obtain relative quantitative data, ImageJ software (NIH, USA) was used for scanning densitometry analysis of Western blots.

phosphorylated cdc2 = assay: Western blot, G2/M checkpoint proteins; assay type: cell-based; settings: HeLa, after both 24 and 48 h
Description: as §3, §4

cyclin B1 = assay: Western blot, G2/M checkpoint proteins; assay type: cell-based; settings: HeLa, 24 h, 0.5 μM
Description: as §3, §4

Sequence of bovine brain tubulin (Q6B856 whole entry): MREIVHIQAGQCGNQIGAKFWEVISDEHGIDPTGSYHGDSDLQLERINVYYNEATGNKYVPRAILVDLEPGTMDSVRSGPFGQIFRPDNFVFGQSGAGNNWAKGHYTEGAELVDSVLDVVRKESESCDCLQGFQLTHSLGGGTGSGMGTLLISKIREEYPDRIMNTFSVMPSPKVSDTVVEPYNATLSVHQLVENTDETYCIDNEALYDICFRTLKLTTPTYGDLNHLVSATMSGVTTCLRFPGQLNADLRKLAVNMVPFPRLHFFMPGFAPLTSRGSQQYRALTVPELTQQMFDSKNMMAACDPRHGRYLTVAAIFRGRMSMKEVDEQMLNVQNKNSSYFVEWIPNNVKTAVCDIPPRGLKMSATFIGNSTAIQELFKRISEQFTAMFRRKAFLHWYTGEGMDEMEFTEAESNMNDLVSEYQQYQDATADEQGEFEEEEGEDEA
Sequence of bovine brain tubulin (P81947 whole entry): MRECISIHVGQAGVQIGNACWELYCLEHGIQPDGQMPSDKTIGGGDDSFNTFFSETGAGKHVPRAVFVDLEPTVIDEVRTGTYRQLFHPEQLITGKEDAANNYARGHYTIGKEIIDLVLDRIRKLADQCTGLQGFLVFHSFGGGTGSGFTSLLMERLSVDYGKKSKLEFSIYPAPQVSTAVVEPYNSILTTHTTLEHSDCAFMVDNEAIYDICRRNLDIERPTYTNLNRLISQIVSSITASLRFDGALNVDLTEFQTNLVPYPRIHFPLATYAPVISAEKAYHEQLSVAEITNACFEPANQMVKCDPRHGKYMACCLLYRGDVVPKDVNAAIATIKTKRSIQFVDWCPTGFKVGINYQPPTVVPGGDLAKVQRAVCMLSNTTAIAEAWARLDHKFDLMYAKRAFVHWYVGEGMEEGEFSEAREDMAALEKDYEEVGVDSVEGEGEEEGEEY
Sequence of tubulin colchicine site (Q6B856 whole entry): as the sequence (Q6B856 whole entry) above
Sequence of tubulin colchicine site (P81947 whole entry): as the sequence (P81947 whole entry) above

CCOC(=O)c1cc2c(n1Cc1cccc(OC)c1)-c1oncc1CCC2 [Compound 63, Ethyl 9-(3-Methoxybenzyl)-4,5,6,9-tetrahydropyrrolo[2′,3′:3,4]cyclohepta[1,2-d][1,2]oxazole-8-carboxylate]
concentration at which G2/M arrest first occurred (HeLa cells [1]): 1 µM | GI50 (A549/ATCC): 0.76 µM | IC50 (bovine brain tubulin): 6.3 ± 0.06 µM | GI50 [2]: > 100 µM | GI50 [3]: > 100 µM

CCOC(=O)c1cc2c(n1Cc1cc(OC)cc(OC)c1)-c1oncc1CCC2 [Compound 66, Ethyl 9-(3,5-Dimethoxybenzyl)-4,5,6,9-tetrahydropyrrolo[2′,3′:3,4]cyclohepta[1,2-d][1,2]oxazole-8-carboxylate]
concentration at which G2/M arrest first occurred (HeLa cells [1]): 0.125 µM | cells arrested in G2/M (HeLa cells [1]; 0.5 μM): over 80% | GI50 (A549/ATCC): 0.06 µM | IC50 (bovine brain tubulin): 2.6 ± 0.03 µM | inhibition at 5 µM (tubulin colchicine site): 62 ± 2% | apoptotic cells (HeLa cells [4]; 24 h, 0.5 μM): significant increase | necrotic cells (HeLa cells [4]; 48 h): substantial increase | GI50 [2]: > 100 µM | GI50 [3]: > 100 µM | ROS production (HeLa cells [5]): induced the production of ROS | total cdc25c expression (cdc25c): strongly reduced | expression of phosphorylated cdc2 (phosphorylated cdc2): strongly decreased | cyclin B1 expression (cyclin B1): substantial increase

CCOC(=O)c1cc2c(n1Cc1cc(OC)c(OC)c(OC)c1)-c1oncc1CCC2 [Compound 67, Ethyl 9-(3,4,5-Trimethoxybenzyl)-4,5,6,9-tetrahydropyrrolo[2′,3′:3,4]cyclohepta[1,2-d][1,2]oxazole-8-carboxylate]
IC50 (bovine brain tubulin): 4.6 ± 0.8 µM | inhibition at 5 µM (tubulin colchicine site): 25 ± 0.01%

CCOC(=O)c1c(Cl)c2c(n1Cc1cc(OC)cc(OC)c1)-c1oncc1CCC2 [Compound 75, Ethyl 7-Chloro-9-(3,5-dimethoxybenzyl)-4,5,6,9-tetrahydropyrrolo[2′,3′:3,4]cyclohepta[1,2-d][1,2]oxazole-8-carboxylate]
concentration at which G2/M arrest first occurred (HeLa cells [1]): 0.25 µM | IC50 (bovine brain tubulin): 1.9 ± 0.1 µM | inhibition at 5 µM (tubulin colchicine site): 42 ± 5% | GI50 [2]: > 100 µM | GI50 [3]: > 100 µM
